We go through five molecules from patent US9155724B2, “Combination methods for treatment of disease” (Whitehead Institute for Biomedical Research, priority 2010, dated 2015).

Data set [1] concerns c-Myc-dependent oncogenic transformation of chicken embryo fibroblasts. The following applies: at 20 μM; cited from earlier work.
Data set [2] addresses T1, P-TEFb (Mus musculus, UniProt Q99J95).
T1 construct: endogenous in cells; host or cells: V6.5 (C57BL/6-129) murine ES cells
Briefly: Spt5 and NelfA ChIP-chip in flavopiridol-treated mES cells. Type of data set: cell-based, murine. The following applies: flavopiridol for 60 minutes.
Protocol: (A) Pairwise correlation analysis of Spt5, NelfA and Pol II (all) ChIP-seq occupancy in mES cells. […] (B) Western blot analysis of mES cells treated with 1 mM flavopiridol or control for 60 minutes prior. […] (C) Average gene binding for NelfA and Spt5 following 1 mM flavopiridol (red) or control (black) for 60 minutes in mES cells. The average ChIP-chip enrichment was determined in each bin (250 bp) in each condition and plotted from −4 kb to +2 kb.
We used ChIP-chip to determine if Spt5 and NelfA co-occupy promoter proximal sites with Pol II when P-TEFb activity is inhibited by flavopiridol.
Purified immunoprecipitated DNA was amplified using two rounds of ligation mediated PCR (LM PCR), as described in (Lee et al., 2006b) and the Agilent Mammalian ChIP-on-chip protocol (version 9.1, November 2006). LM-PCR immunoprecipitated DNA was labeled with Cy5, LM-PCR input DNA was labeled with Cy3 using Invitrogen Bioprime random primer labeling kit. For microarray hybridization, the Agilent Mammalian ChIP-on-chip protocol (version 9.1, November 2006) was followed. In brief, mouse Cotl DNA, Agilent blocking buffer (1× final conc.), Agilent hybridization buffer (1× final conc.), was added to Cy5- and Cy3-labeled DNA. The mixture was incubated at 95° C. for 3 minutes, followed by 37° C. for 30 minutes. Sample was centrifuged for 1 min and sample was hybridized to Agilent DNA microarray. […]

For data set [3] the following is noted: cited from earlier work.
For data set [4], the target named is T1, P-TEFb. As to the kind of experiment: Western blot of P-TEFb target phosphorylation in flavopiridol-treated mES cells. The format is cell-based, murine. The following applies: 1 μM flavopiridol, within 60 min.
Protocol: (A) mES cells were treated with 1 μM flavopiridol for the indicated time.
(A) mES cells were treated with the indicated flavopiridol concentration or DMSO alone (−), for 60 minutes.
To assess the role of P-TEFb-dependent pause release in global transcriptional control, we repeated the ChIP-Seq experiment for total Pol II in mES cells treated with flavopiridol, an inhibitor of Cdk9 kinase activity (Chao et al., 2000; Chao and Price, 2001; Ni et al., 2004).
V6.5 (C57BL/6-129) murine ES cells were grown under typical mES conditions on irradiated mouse embryonic fibroblasts (MEFs). […] For location analysis on mES cells following treatment with small molecule inhibitors, cells were grown two passages off feeders and prior to formaldehyde crosslinking, the cells were treated by addition of the indicated final concentration of flavopiridol (1 μM for 1 hour for ChIP-chip and ChIP-seq experiments, or the indicated concentration and time for Western blot analysis), or c-Myc/Max inhibitor 10058-F4 (50 μM for 6 hours), both dissolved in DMSO, to the growth medium. As a control, vehicle alone (DMSO) was added to the growth medium at the same final volume as with drug. Small molecule inhibitors used were: Flavopiridol (Sigma cat #F3055), and c-Myc inhibitor 10058-F4 (Sigma cat #F3680).
Western blots were done following standard protocols. Antibodies used for Western blots were as follows: Spt5: gift of Yuki Yamaguchi and Hiroshi Handa (Wada et al., 1998); NelfA: gift of Yuki Yamaguchi and Hiroshi Handa; Cdk9: Santa Cruz sc-484 and sc-8338, Ser2P Pol II: Abcam (H5 clone) ab24758; Ser5P Pol II: Abcam ab5131; Brg1: Santa Cruz sc-10768; Max: Santa Cruz sc-197; c-Myc: Santa Cruz-764; Cyclin T1: gift of David Price; Oct4: Santa Cruz sc-5279; and TBP: Abcam ab818.
For data set [5], the target named is T1, P-TEFb. Briefly: Pol II ChIP-seq / traveling ratio in flavopiridol-treated mES cells. The format is cell-based, murine.
Protocol: (A) mES cells were treated with 1 μM flavopiridol for the indicated time. […] (B) RNA Pol II (all) ChIP-seq analysis in mES cells treated with control (DMSO for 60 minutes, black) or flavopiridol (1 μM for 60 minutes, red). […] Higher TR values indicate a higher degree of pausing.
To assess the role of P-TEFb-dependent pause release in global transcriptional control, we repeated the ChIP-Seq experiment for total Pol II in mES cells treated with flavopiridol, an inhibitor of Cdk9 kinase activity (Chao et al., 2000; Chao and Price, 2001; Ni et al., 2004). […] If Pol II pause release is required at transcribed genes, we would expect that in the presence of flavopiridol, Pol II molecules would remain associated with promoter proximal pause sites but be depleted from DNA further downstream. […] We analyzed traveling ratios to further evaluate changes in Pol II occupancy genome-wide.
V6.5 (C57BL/6-129) murine ES cells were grown under typical mES conditions on irradiated mouse embryonic fibroblasts (MEFs). For location analysis, cells were grown for two passages off of MEFs, on gelatinized tissue-culture plates. […]
To quantify this effect, we have developed a measure called Traveling Ratio (TR) that compares the ratio between Pol II density in the promoter and in the gene region. […]
For data set [6] the following is noted: cited from earlier work. This is another data set of the same source.
Data set [7] deals with c-Myc (Homo sapiens, UniProt P01106). The following applies: relative to parent compound 10058-F4; cited from earlier work.
Sequence of c-Myc (P01106 whole entry): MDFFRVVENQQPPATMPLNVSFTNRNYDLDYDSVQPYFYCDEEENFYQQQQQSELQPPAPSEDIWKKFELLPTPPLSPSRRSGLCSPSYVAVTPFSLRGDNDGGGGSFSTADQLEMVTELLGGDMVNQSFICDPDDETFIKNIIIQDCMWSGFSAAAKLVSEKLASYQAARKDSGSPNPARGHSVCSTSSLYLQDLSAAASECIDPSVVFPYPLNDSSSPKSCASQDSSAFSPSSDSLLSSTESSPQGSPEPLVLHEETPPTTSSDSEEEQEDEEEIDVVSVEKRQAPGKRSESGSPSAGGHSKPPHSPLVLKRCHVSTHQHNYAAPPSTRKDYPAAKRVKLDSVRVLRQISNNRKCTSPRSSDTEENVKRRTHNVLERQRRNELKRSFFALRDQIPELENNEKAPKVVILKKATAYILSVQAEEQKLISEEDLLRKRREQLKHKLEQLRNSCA
Data set [8] concerns HL60 cells. The following applies: read-out: IC50 on HL60 cells (growth inhibition); cited from earlier work.
Data set [9] deals with T2, c-Myc/Max (Mus musculus, UniProt P01108).
T2 construct: endogenous in cells; host or cells: V6.5 (C57BL/6-129) murine ES cells
T2 sequence (P01108 whole entry): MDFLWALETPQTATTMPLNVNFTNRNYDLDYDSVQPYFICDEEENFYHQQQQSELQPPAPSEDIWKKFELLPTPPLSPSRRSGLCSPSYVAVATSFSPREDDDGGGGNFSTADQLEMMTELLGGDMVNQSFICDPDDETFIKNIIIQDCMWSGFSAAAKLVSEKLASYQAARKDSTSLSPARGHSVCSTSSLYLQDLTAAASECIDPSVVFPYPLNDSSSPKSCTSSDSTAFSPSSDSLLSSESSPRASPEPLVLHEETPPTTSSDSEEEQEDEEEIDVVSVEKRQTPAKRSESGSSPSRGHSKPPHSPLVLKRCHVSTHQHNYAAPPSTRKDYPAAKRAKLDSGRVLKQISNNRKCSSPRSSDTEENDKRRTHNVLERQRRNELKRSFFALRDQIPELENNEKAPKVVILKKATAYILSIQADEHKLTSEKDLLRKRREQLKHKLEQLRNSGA
Briefly: Western blot of 10058-F4-treated mES cells. The format is cell-based, murine. As for the experimental part:
FIGS. 6A to 6E. c-Myc inhibition effects transcription at the pause release step. (A) RNA was extracted from mES cells treated with 10058-F4 or vehicle alone (DMSO) for 6 hours and used to generate cDNA using reverse transcription. Expression change was calculated for 10058-F4 treated cells compared vehicle alone control for two non-c-Myc target genes (Brg1, Rnf2-green) and five c-Myc target genes (Bax, Nol5, Zfp451, Brca2 and Atic—blue) from two independent experiments. Error bars represent s.d. from triplicate qPCR reactions. (B) mES cells were treated with 10058-F4 for either 1.5, 6 or 12 hours. Extracts were analyzed using Western blot using antibodies against Pol II Ser2P CTD, Pol II Ser5P CTD and Cdk9 to determine the levels of the modified forms of Pol II. TBP was used as a loading control. (C) Pol II ChIP-seq binding profiles in mES cells treated with 10058-F4 (c-Myc/Max inhibitor; blue), vehicle alone (black), or flavopiridol (P-TEFb inhibitor; red). Pol II occupancy is shown for three c-Myc target genes (Ncl, Npm1 and Nol5) and two non-cMyc target gene (Txnip and Chpf2). Cells were treated with 10058-F4 or DMSO for 6 hours. See also FIG. 14. (D) Average Pol II binding plots for the high confidence cMyc targets and non-c-Myc target genes in no drug (black), and 10058-F4 treatment (blue). […] The right panel is a close up of the transcribed region to show the difference in amounts of elongating Pol II density under the different conditions. […]
FIGS. 14A to 14F. […] Max ChIP DNA was analyzed using qPCR at the selected binding sites and enrichment was calculated for replicate PCR reactions over input DNA at each region. […] Protein extracts were analyzed using Western blots and probed with antibodies against CycT1 and Cdk9. […] ES cells were infected for 24 hours, then selected for 72 hours prior to harvesting. c-Myc levels were determined using RT-PCR analysis and normalized against a Gapdh control. […] ES cells were infected for 24 hours, then selected for 72 hours prior to harvesting. c-Myc levels were determined using Western blot analysis using an antibody against c-Myc. […]

For data set [10], the target named is T2, c-Myc/Max. Briefly: Pol II ChIP-seq / traveling ratio in 10058-F4-treated mES cells. The format is cell-based, murine. The following applies: 50 μM for 6 hours. Here is the method:
FIGS. 6A to 6E. c-Myc inhibition effects transcription at the pause release step. (A) RNA was extracted from mES cells treated with 10058-F4 or vehicle alone (DMSO) for 6 hours and used to generate cDNA using reverse transcription. Expression change was calculated for 10058-F4 treated cells compared vehicle alone control for two non-c-Myc target genes (Brg1, Rnf2-green) and five c-Myc target genes (Bax, Nol5, Zfp451, Brca2 and Atic—blue) from two independent experiments. Error bars represent s.d. from triplicate qPCR reactions. (B) mES cells were treated with 10058-F4 for either 1.5, 6 or 12 hours. Extracts were analyzed using Western blot using antibodies against Pol II Ser2P CTD, Pol II Ser5P CTD and Cdk9 to determine the levels of the modified forms of Pol II. TBP was used as a loading control. (C) Pol II ChIP-seq binding profiles in mES cells treated with 10058-F4 (c-Myc/Max inhibitor; blue), vehicle alone (black), or flavopiridol (P-TEFb inhibitor; red). Pol II occupancy is shown for three c-Myc target genes (Ncl, Npm1 and Nol5) and two non-cMyc target gene (Txnip and Chpf2). Cells were treated with 10058-F4 or DMSO for 6 hours. See also FIG. 14. (D) Average Pol II binding plots for the high confidence cMyc targets and non-c-Myc target genes in no drug (black), and 10058-F4 treatment (blue). […] The right panel is a close up of the transcribed region to show the difference in amounts of elongating Pol II density under the different conditions. Also included in the right panel for comparison is elongating Pol II density following flavopiridol treatment (red). (E) Pol II traveling ratio (TR) as described in FIG. 1C for the high confidence c-Myc target genes and non-c-Myc target genes following 10058-F4 treatment (blue) or no drug (black). The left panel is the TR for the c-Myc targets and right panel is the TR for non-c-Myc targets. Higher TR values indicate a higher degree of pausing in this gene set.
If c-Myc regulates pause release, then inhibition by 10058-F4 should have an effect on Pol II levels in promoter and gene bodies similar to that of flavopiridol, but only at c-Myc occupied genes. […]
We carried out a more global analysis of the effect of 10058-F4 on Pol II occupancy of genes bound by c-Myc and compared these patterns to genes that are not bound by this factor but show evidence of elongation (FIG. 6D). […] A similar shift in TR at the c-Myc target genes was also detected following c-Myc shRNA knockdown, indicating genes become more paused (FIG. 14F). […]
RNAPolII—10058F4Treated_Tracks.WIG.gz—contains two ChIP-seq datasets mapped to mouse genome mm8 using a +200 bp extension model that can be uploaded to the UCSC genome browser to view binding events. The ChIP experiments were done using the N20 Pol II antibody (sc-899) to determined total Pol II occupancy. […]

Data set [11] concerns the target T2, c-Myc/Max. Briefly: expression analysis (quantitative PCR) in 10058-F4-treated mES cells. Type of data set: cell-based, murine. The following applies: 50 μM for 6 hours. As for the experimental part: FIGS. 6A to 6E. c-Myc inhibition effects transcription at the pause release step. (A) RNA was extracted from mES cells treated with 10058-F4 or vehicle alone (DMSO) for 6 hours and used to generate cDNA using reverse transcription. Expression change was calculated for 10058-F4 treated cells compared vehicle alone control for two non-c-Myc target genes (Brg1, Rnf2-green) and five c-Myc target genes (Bax, Nol5, Zfp451, Brca2 and Atic—blue) from two independent experiments. Error bars represent s.d. from triplicate qPCR reactions. (B) mES cells were treated with 10058-F4 for either 1.5, 6 or 12 hours. Extracts were analyzed using Western blot using antibodies against Pol II Ser2P CTD, Pol II Ser5P CTD and Cdk9 to determine the levels of the modified forms of Pol II. TBP was used as a loading control. […]
To more directly test whether c-Myc regulates pause release and the associated Pol II CTD phosphorylation at Ser2, we used a low molecular weight inhibitor of c-Myc/Max, 10058-F4, which inhibits c-Myc/Max heterodimerization both in vitro and in vivo (Hammoudeh et al., 2009; Wang et al., 2007; Yin et al., 2003). Max co-occupies c-Myc binding sites as determined by ChIP, confirming that c-Myc and Max function together at target genes in ES cells (FIG. 14A). […]

The mark [12] stands for this setting: ES cells treated with 10058-F4 for 1.5, 6 or 12 hours.

Where a name gives a salt, the structure may show the parent alone.

T1 sequence (Q99J95 whole entry): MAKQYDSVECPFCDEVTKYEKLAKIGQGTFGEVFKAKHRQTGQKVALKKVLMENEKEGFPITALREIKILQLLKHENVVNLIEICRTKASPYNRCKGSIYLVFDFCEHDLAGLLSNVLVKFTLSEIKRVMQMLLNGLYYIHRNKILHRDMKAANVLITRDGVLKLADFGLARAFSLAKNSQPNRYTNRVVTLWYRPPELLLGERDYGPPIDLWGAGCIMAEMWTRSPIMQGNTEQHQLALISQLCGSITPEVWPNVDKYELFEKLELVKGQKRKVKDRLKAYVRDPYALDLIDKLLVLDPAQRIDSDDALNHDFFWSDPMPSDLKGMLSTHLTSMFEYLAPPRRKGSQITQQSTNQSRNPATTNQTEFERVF
T1 sequence (Q9QWV9 whole entry partner): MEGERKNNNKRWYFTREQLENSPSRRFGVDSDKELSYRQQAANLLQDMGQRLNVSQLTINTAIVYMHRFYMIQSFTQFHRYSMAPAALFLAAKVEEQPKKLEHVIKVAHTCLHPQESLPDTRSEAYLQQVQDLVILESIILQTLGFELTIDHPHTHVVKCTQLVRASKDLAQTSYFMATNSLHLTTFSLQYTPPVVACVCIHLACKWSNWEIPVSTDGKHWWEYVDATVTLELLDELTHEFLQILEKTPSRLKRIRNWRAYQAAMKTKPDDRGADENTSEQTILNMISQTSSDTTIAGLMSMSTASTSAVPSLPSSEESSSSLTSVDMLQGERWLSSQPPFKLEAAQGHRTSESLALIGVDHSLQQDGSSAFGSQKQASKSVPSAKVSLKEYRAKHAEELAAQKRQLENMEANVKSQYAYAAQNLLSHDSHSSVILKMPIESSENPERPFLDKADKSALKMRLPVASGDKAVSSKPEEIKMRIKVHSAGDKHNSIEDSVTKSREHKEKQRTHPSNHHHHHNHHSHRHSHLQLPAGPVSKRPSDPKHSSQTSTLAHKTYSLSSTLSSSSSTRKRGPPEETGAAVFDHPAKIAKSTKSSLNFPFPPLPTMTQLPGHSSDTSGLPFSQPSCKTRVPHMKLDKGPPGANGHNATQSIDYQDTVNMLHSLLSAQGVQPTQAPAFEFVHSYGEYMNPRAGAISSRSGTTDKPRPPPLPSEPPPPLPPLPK

Turning to `COc1ccc(CN(C(=O)c2ccccn2)C(C(=O)NC2CCCCC2)c2ccc3cc(OCC(=O)OC(C)(C)C)ccc3c2)cc1` (centres unmarked) [NY2267], the “inhibition of c-Myc-dependent oncogenic transformation” value in [1] is recorded as “strongly inhibited”.
Consider `CN1CC[C@H](c2c(O)cc(O)c3c(=O)cc(-c4ccccc4Cl)oc23)[C@H](O)C1` [flavopiridol, (−)-2-(2-Chlorophenyl)-5,7-dihydroxy-8-[(3S,4R)-3-hydroxy-1-methyl-4-piperidinyl]-4H-1-benzopyran-4-one hydrochloride], for which, in [2], the “Spt5 occupancy downstream of promoter proximal sites” value is recorded as “depleted”. Besides, the main side effects result in data set [3] (doses achieving plasma levels of approximately 400 nM, 72 hour treatment) is “fatigue, venous thromboses, and diarrhea”. The plasma flavopiridol levels entry in data set [3] (during a 72 hour treatment period) is listed as “approximately 400 nM”. In addition, in data set [4], the “Ser5 phosphorylation of Pol II” value is listed as “remained unaffected”, the “phosphorylation of Pol II Ser2” value is on record as “reduced phosphorylation” and the “phosphorylation of Spt5” value is on record as “reduced phosphorylation”. Besides, in data set [5] (1 μM for 60 minutes), the “genes with a change in Pol II TR of at least 1.5 upon drug treatment” value came to 75%. The “pause release at genes that are not targets of c-Myc” value in data set [5] (flavopiridol treatment, Pol II ChIP-seq) is “block in pause release”.
On to `CC[C@H](CO)Nc1nc(NCc2ccccc2)c2ncn(C(C)C)c2n1` [roscovitine, 2-(R)-(1-Ethyl-2-hydroxyethylamino)-6-benzylamino-9-isopropyl purine], for which, in data set [6] (at 800 mg b.i.d.), the dose-limiting toxicities result was “grade 3 fatigue, grade 3 skin rash, grade 3 hyponatraemia and grade 4 hypokalaemia”. In addition, in [6] (patients with solid tumors, 7-day b.i.d. p.o. schedule), the “dose at which dose-limiting toxicities were seen” value is on record as 800 mg b.i.d.
On to `CC(C)c1ccc(/C=C2\SC(=S)N(CN3CCCCC3)C2=O)cc1` [28RH-NCN-1], for which the “inhibition of DNA binding of c-Myc” value in data set [7] is reported as “comparable to that of the parent compound”. The IC50 in [8] is 29 µM.
In the case of `CCc1ccc(/C=C2\SC(=S)NC2=O)cc1` [10058-F4], in [9] (setting [12]), the “levels of Pol II Ser2P” value is given as “significant reduction” and the “levels of Pol II Ser5P” value is on record as “remained unaffected”. Moreover, the “protein levels of P-TEFb components Cdk9 or CycT1” value in [9] (mES cells, 10058-F4 for 6 hours) is given as “did not alter”. Further, in data set [10], the “TR at c-Myc target genes” value was “substantial increase” and the “TR at non-c-Myc targets” value was “no such shift”. In addition, the “Pol II density in transcribed regions” value in data set [10] (c-Myc targets, gene body p=7.341e-06) is on record as “clear reduction”. The “Pol II density at promoters” value in data set [10] (c-Myc targets, p=0.4536) is reported as “little effect”. Moreover, the IC50 in data set [8] was 49 µM. Moreover, in [11], the “decrease in the expression of c-Myc target genes” value was 20-40% and the “expression of two non-c-Myc target genes” value is recorded as “did not affect”.
